Measurements: publication PMC10388311, “Innovative Strategy toward Mutant CFTR Rescue in Cystic Fibrosis: Design and Synthesis of Thiadiazole Inhibitors of the E3 Ligase RNF5” (Journal of Medicinal Chemistry, 2023)

Biological target: F508del-CFTR in CFBE41o– cells (Homo sapiens, UniProt Q99942)
Assay: HS-YFP microfluorimetric assay of F508del-CFTR rescue (corrector activity)
Format: cell-based
Details: CFBE41o– cells co-expressing F508del-CFTR and HS-YFP, 24 h treatment, Figure 5
Experimental: As a primary screen, the new thiadiazole derivatives 1–46 (Table 1) were tested for their ability to rescue the F508del-CFTR trafficking defect in CFBE41o^– cells, stably co-expressing F508del-CFTR and the HS-YFP (Figure 5). This cell line has been extensively used by our group, in combination with the microfluorimetric assay based on the HS-YFP, to identify and characterize many CFTR correctors.[39],[47] This assay relies on the hypothesis that RNF5 inhibition results in increased mutant CFTR processing and activity. Therefore, it can easily identify putative RNF5 inhibitors, but not other types of RNF5-binding compounds that could have no effect or have a negative effect on CFTR function, such as RNF5 activators (see analog-1). Thus, we opted for this assay as our primary aim was the identification of RNF5 inhibitors as a possible therapeutic strategy in CF. Twenty-four hours after seeding on 96-well plates, CFBE41o^– cells stably expressing F508del-CFTR and the HS-YFP were treated with test compounds at the desired concentration, one compound per well. Cells treated with vehicle alone (DMSO) and with corrector VX-809 (1 μM), respectively, served as negative and positive controls. At the time of the assay, cells were washed with PBS containing (in […]) 137 NaCl, 2.7 KCl, 8.1 Na2HPO4, 1.5 KH2PO4, 1 CaCl2, and 0.5 MgCl2. Cells were then incubated for 25 min with […] of PBS plus forskolin (20 μM) and VX-770 (1 μM) to maximally stimulate F508del-CFTR. Cells were then transferred to a microplate reader (FluoStar Galaxy; BMG Labtech, Offenburg, Germany) for CFTR activity determination. The plate reader was equipped with high-quality excitation (HQ500/20X: 500 ± 10 nm) and emission (HQ535/30M: 535 ± 15 nm) filters for YFP (Chroma Technology). Each assay comprised a continuous 14 s fluorescence reading and 2 s before and 12 s after injection of […] of an iodide-containing solution (PBS with Cl^– replaced by I^–; final I^– concentration […]). Data were normalized to the initial background-subtracted fluorescence. To determine the I^– influx rate, the final 11 s of the data for each well was fitted with an exponential function to extrapolate initial slope (dF/dt). Reproducibility of results was confirmed by performing three independent experiments. CFBE41o^– cells co-expressing F508del-CFTR and the HS-YFP were reverse-transfected with 50 nM (final concentration) siRNAs (Stealth, Life Technologies) in the presence of lipofectamine 2000 as a transfection agent. The following day, the medium was changed, and the cells were incubated at 37 °C for additional 24 h treated with test compounds at the desired concentration, prior to processing the cells for the YFP-based functional assay.

Sequence of F508del-CFTR in CFBE41o– cells (Q99942 2-180): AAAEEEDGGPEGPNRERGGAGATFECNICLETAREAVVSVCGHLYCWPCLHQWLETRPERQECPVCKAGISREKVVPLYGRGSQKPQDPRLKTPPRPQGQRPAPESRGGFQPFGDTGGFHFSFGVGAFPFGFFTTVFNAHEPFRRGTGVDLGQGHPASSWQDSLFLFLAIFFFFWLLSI
Sequence of F508del-CFTR in CFBE41o– cells (P13569 with tags, fused parts or gaps DEL508-508 partner): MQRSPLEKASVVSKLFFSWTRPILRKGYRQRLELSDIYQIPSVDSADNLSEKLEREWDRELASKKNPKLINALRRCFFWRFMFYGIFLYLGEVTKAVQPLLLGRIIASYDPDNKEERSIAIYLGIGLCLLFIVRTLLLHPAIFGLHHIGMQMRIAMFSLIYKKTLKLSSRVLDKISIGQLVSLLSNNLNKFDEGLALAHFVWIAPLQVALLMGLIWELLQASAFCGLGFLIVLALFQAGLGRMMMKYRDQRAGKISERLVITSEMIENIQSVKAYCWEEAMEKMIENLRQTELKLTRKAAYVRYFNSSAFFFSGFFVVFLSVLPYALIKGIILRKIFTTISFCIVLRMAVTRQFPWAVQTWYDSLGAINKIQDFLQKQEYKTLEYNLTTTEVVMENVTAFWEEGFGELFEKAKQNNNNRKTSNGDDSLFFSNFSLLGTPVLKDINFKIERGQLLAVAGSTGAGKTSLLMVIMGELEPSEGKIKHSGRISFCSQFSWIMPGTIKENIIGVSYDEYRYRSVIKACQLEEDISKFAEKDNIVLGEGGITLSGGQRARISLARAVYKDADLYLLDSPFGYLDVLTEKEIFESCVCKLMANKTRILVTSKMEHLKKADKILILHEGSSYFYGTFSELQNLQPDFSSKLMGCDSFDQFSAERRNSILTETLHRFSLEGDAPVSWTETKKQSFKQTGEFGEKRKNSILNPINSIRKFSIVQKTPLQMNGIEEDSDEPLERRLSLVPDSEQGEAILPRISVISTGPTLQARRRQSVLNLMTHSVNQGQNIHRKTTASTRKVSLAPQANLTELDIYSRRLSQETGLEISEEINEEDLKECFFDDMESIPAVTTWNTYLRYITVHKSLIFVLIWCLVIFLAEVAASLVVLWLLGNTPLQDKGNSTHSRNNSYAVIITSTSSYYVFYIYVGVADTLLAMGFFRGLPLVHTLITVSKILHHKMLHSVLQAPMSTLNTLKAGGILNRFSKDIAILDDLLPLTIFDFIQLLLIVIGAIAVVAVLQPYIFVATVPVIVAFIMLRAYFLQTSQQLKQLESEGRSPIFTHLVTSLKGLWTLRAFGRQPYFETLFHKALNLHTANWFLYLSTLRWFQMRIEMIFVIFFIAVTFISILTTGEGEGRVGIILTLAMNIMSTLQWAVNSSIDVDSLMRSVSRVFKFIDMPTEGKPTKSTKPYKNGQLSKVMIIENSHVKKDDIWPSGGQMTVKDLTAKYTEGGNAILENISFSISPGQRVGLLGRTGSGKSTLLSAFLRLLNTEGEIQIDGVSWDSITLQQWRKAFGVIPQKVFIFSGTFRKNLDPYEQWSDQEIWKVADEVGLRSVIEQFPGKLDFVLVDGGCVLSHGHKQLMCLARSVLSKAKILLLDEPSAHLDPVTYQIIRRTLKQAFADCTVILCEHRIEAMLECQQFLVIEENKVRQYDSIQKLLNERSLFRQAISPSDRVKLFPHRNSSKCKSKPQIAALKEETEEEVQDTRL

F508del-CFTR corrector activity compared with inh-2 (CFTR activity, primary screen)	SMILES
inactive analogs	Cc1cccc(/N=C(/N=c2\snc(C)n2Cc2ccccc2)c2ccccc2)c1 [Compound 37, (E)-N-((Z)-4-Benzyl-3-methyl-1,2,4-thiadiazol-5(4H)-ylidene)-N′-(m-tolyl)benzimidamide]
did not affect the activity	Cc1ns/c(=N\C(=N\c2ccccc2)c2ccccc2)n1Cc1cccc(F)c1 [Compound 23, (E)-N-((Z)-4-(3-Fluorobenzyl)-3-methyl-1,2,4-thiadiazol-5(4H)-ylidene)-N′-phenylbenzimidamide]
inactive analogs	Cc1ns/c(=N\C(=N\Cc2ccccc2)c2ccccc2)n1Cc1ccccc1 [Compound 38, (E)-N′-Benzyl-N-((Z)-4-benzyl-3-methyl-1,2,4-thiadiazol-5(4H)-ylidene)benzimidamide]
did not affect the activity	Cc1cccc(Cn2c(C)ns/c2=N\C(=N\c2ccccc2)c2ccccc2)c1 [Compound 14, (E)-N-((Z)-3-Methyl-4-(3-methylbenzyl)-1,2,4-thiadiazol-5(4H)-ylidene)-N′-phenylbenzimidamide]
reduced potency	Cc1ns/c(=N\C(=N\c2ccccc2)c2ccccc2)n1Cc1ccc(N)cc1 [Compound 13, (E)-N-((Z)-4-(4-Aminobenzyl)-3-methyl-1,2,4-thiadiazol-5(4H)-ylidene)-N′-phenylbenzimidamide]
drop of activity	Cc1ns/c(=N\C(=N\c2ccccc2)c2ccco2)n1Cc1ccccc1 [Compound 36, (E)-N-((Z)-4-Benzyl-3-methyl-1,2,4-thiadiazol-5(4H)-ylidene)-N′-phenylfuran-2-carboximidamide]
slight increase in activity	Cc1ccccc1Cn1c(C)ns/c1=N\C(=N\c1ccccc1)c1ccccc1 [Compound 25, (E)-N-((Z)-3-Methyl-4-(2-methylbenzyl)-1,2,4-thiadiazol-5(4H)-ylidene)-N′-phenylbenzimidamide]
inactive analogs	Cc1ns/c(=N\C(=N\c2cccnc2)c2ccccc2)n1Cc1ccccc1 [Compound 41, (E)-N-((Z)-4-Benzyl-3-methyl-1,2,4-thiadiazol-5(4H)-ylidene)-N′-(pyridin-3-yl)benzimidamide]
increased activity	Cc1ns/c(=N\C(=N\c2ccccc2)c2ccccc2)n1Cc1cccc(Cl)c1 [Compound 24, (E)-N-((Z)-4-(3-Chlorobenzyl)-3-methyl-1,2,4-thiadiazol-5(4H)-ylidene)-N′-phenylbenzimidamide]
maintained the activity unaltered	Cc1ccc(Cn2c(C)ns/c2=N\C(=N\c2ccccc2)c2ccccc2)cc1 [Compound 6, (E)-N-((Z)-3-Methyl-4-(4-methylbenzyl)-1,2,4-thiadiazol-5(4H)-ylidene)-N′-phenylbenzimidamide]
drop of activity	Cc1ns/c(=N\C(=N\c2ccccc2)c2cccnc2)n1Cc1ccccc1 [Compound 35, (E)-N-((Z)-4-Benzyl-3-methyl-1,2,4-thiadiazol-5(4H)-ylidene)-N′-phenylnicotinimidamide]
maintained the activity unaltered	Cc1ns/c(=N\C(=N\c2ccccc2)c2ccccc2)n1Cc1ccc(Cl)cc1 [Compound 10, (E)-N-((Z)-4-(4-Chlorobenzyl)-3-methyl-1,2,4-thiadiazol-5(4H)-ylidene)-N′-phenylbenzimidamide]

The remaining lines, values behind:

SMILES	F508del-CFTR corrector activity compared with inh-2 (CFTR activity, primary screen)
Cc1ns/c(=N\C(=N\c2ccccc2)c2ccccc2)n1Cc1ccc(O)cc1 [Compound 8, (E)-N-((Z)-4-(4-Hydroxybenzyl)-3-methyl-1,2,4-thiadiazol-5(4H)-ylidene)-N′-phenylbenzimidamide]	reduced potency
Cc1ns/c(=N\C(=N\c2ccccc2)c2ccccc2)n1Cc1cccc(N(C)C)c1 [Compound 22, (E)-N-((Z)-4-(3-(Dimethylamino)benzyl)-3-methyl-1,2,4-thiadiazol-5(4H)-ylidene)-N′-phenylbenzimidamide]	did not affect the activity
c1ccc(Cn2ncs/c2=N\C(=N\c2ccccc2)c2ccccc2)cc1 [Compound 45, (E)-N-((Z)-3-Benzyl-1,3,4-thiadiazol-2(3H)-ylidene)-N′-phenylbenzimidamide]	abolished any corrector activity
Cc1ns/c(=N\C(=N\c2ccccc2)c2ccccc2)n1Cc1cccc(C(F)(F)F)c1 [Compound 15, (E)-N-((Z)-3-Methyl-4-(3-(trifluoromethyl)benzyl)-1,2,4-thiadiazol-5(4H)-ylidene)-N′-phenylbenzimidamide]	decreased potency
Cc1ns/c(=N\C(=N\c2ccccc2)c2ccccc2)n1Cc1ccccc1C(F)(F)F [Compound 26, (E)-N-((Z)-3-Methyl-4-(2-(trifluoromethyl)benzyl)-1,2,4-thiadiazol-5(4H)-ylidene)-N′-phenylbenzimidamide]	detrimental effect
c1ccc(Cn2ccs/c2=N\C(=N\c2ccccc2)c2ccccc2)cc1 [Compound 46, (E)-N-((Z)-3-Benzylthiazol-2(3H)-ylidene)-N′-phenylbenzimidamide]	abolished any corrector activity
Cc1ns/c(=N\C(=N\c2ccccc2)c2ccccc2)n1Cc1cccc(OC(C)C)c1 [Compound 18, (E)-N-((Z)-4-(3-Isopropoxybenzyl)-3-methyl-1,2,4-thiadiazol-5(4H)-ylidene)-N′-phenylbenzimidamide]	decreased potency
CCOc1cccc(Cn2c(C)ns/c2=N\C(=N\c2ccccc2)c2ccccc2)c1 [Compound 19, (E)-N-((Z)-4-(3-Ethoxybenzyl)-3-methyl-1,2,4-thiadiazol-5(4H)-ylidene)-N′-phenylbenzimidamide]	did not affect the activity
Cc1ns/c(=N\C(=N\c2ccccc2)c2ccccc2)n1CCCc1ccccc1 [Compound 5, (E)-N-((Z)-3-Methyl-4-(3-phenylpropyl)-1,2,4-thiadiazol-5(4H)-ylidene)-N′-phenylbenzimidamide]	devoid of significant F508del-CFTR corrector activity
COc1ccc(Cn2c(C)ns/c2=N\C(=N\c2ccccc2)c2ccccc2)cc1 [Compound 7, (E)-N-((Z)-4-(4-Methoxybenzyl)-3-methyl-1,2,4-thiadiazol-5(4H)-ylidene)-N′-phenylbenzimidamide]	reduced potency
Cc1ns/c(=N\C(=N\c2ccccc2)c2ccccc2)n1CCc1ccccc1 [Compound 4, (E)-N-((Z)-3-Methyl-4-phenethyl-1,2,4-thiadiazol-5(4H)-ylidene)-N′-phenylbenzimidamide]	devoid of significant F508del-CFTR corrector activity
Cc1ns/c(=N\C(=N\c2ccccc2)c2ccccc2)n1Cc1ccccc1Cl [Compound 28, (E)-N-((Z)-4-(2-Chlorobenzyl)-3-methyl-1,2,4-thiadiazol-5(4H)-ylidene)-N′-phenylbenzimidamide]	comparable activity to the unsubstituted original hit inh-2
COCCc1ccnc(/N=c2\snc(C)n2Cc2ccccc2)c1 [Compound 43, (Z)-4-Benzyl-N-(4-(2-methoxyethyl)pyridin-2-yl)-3-methyl-1,2,4-thiadiazol-5(4H)-imine]	inactive compounds
COc1ccccc1Cn1c(C)ns/c1=N\C(=N\c1ccccc1)c1ccccc1 [Compound 27, (E)-N-((Z)-4-(2-Methoxybenzyl)-3-methyl-1,2,4-thiadiazol-5(4H)-ylidene)-N′-phenylbenzimidamide]	slight increase in activity
Cc1nn(Cc2ccccc2)/c(=N/C(=N/c2ccccc2)c2ccccc2)s1 [Compound 44, (E)-N-((Z)-3-Benzyl-5-methyl-1,3,4-thiadiazol-2(3H)-ylidene)-N′-phenylbenzimidamide]	abolished any corrector activity
